Measured values: the NIST ThermoML archive (doi:10.1021/acs.jced.8b00217)
Numbers after ± are expanded uncertainties.

Tests used:
[1] = 298.15 K; 101.3 kPa; Liquid; Vibrating tube method
[2] = relative permittivity at various frequencies (dimensionless); details: 298.15 K; 101.3 kPa; Liquid; Frequency=0.01 MHz; Coaxial cylinder capacitor
[3] = refractive index (Na D-line) (dimensionless); details: 298.15 K; 101.3 kPa; Liquid; Standard Abbe refractometry
[4] = relative permittivity at various frequencies (dimensionless); xn = mol fraction of the nth substance listed; details: 298.15 K, 101.3 kPa, Liquid, Frequency=0.01 MHz, Coaxial cylinder capacitor
[5] = xn = mol fraction of the nth substance listed; details: 298.15 K, 101.3 kPa, Liquid, Vibrating tube method
[6] = refractive index (Na D-line) (dimensionless); xn = mol fraction of the nth substance listed; details: 298.15 K, 101.3 kPa, Liquid, Standard Abbe refractometry

C1CCCCC1 [cyclohexane]
Details | mass density [kg/m3] | refractive index | relative permittivity
[1] | 773.89 ± 1 | – | –
[2] | – | – | 2.02 ± 0.29
[3] | – | 1.4235 ± 0.001 | –

O=C1CCCC1 [cyclopentanone] + CCO
Details | mass density, [5] [kg/m3] | refractive index, [6] | relative permittivity, [4]
x1 = 0.1 | 811.02 ± 1.1 | 1.3696 ± 0.0011 | 22.42 ± 0.8
x1 = 0.2 | 833.48 ± 1.1 | 1.3793 ± 0.0011 | 20.69 ± 0.77
x1 = 0.3 | 853.69 ± 1.1 | 1.3884 ± 0.0011 | 19.16 ± 0.75
x1 = 0.4 | 871.79 ± 1.1 | 1.3968 ± 0.0011 | 17.78 ± 0.72
x1 = 0.5 | 888.17 ± 1.1 | 1.4046 ± 0.0011 | 16.6 ± 0.7
x1 = 0.6 | 902.91 ± 1.1 | 1.4117 ± 0.0011 | 15.59 ± 0.68
x1 = 0.7 | 915.99 ± 1 | 1.4182 ± 0.0011 | 14.77 ± 0.66
x1 = 0.8 | 927.18 ± 1 | 1.4242 ± 0.0011 | 14.16 ± 0.65
x1 = 0.9 | 936.58 ± 1 | 1.4296 ± 0.0011 | 13.75 ± 0.64
x1 = 1 | 944.31 ± 1 | 1.4347 ± 0.0011 | 13.52 ± 0.63

O=C1CCCC1 [cyclopentanone] + CCCCO
Details | mass density, [5] [kg/m3] | refractive index, [6] | relative permittivity, [4]
x1 = 0.1 | 820.75 ± 1.1 | 1.4015 ± 0.0011 | 16.31 ± 0.69
x1 = 0.2 | 835.31 ± 1.1 | 1.4057 ± 0.0011 | 15.37 ± 0.67
x1 = 0.3 | 849.88 ± 1.1 | 1.4098 ± 0.0011 | 14.58 ± 0.65
x1 = 0.4 | 864.47 ± 1.1 | 1.4137 ± 0.0011 | 13.97 ± 0.64
x1 = 0.5 | 878.88 ± 1.1 | 1.4175 ± 0.0011 | 13.5 ± 0.6
x1 = 0.6 | 893.05 ± 1.1 | 1.4212 ± 0.0011 | 13.18 ± 0.62
x1 = 0.7 | 906.81 ± 1.1 | 1.4248 ± 0.0011 | 13.03 ± 0.62
x1 = 0.8 | 920.01 ± 1.1 | 1.4282 ± 0.0011 | 13.04 ± 0.62
x1 = 0.9 | 932.67 ± 1.1 | 1.4315 ± 0.0011 | 13.19 ± 0.62
x1 = 1 | 944.31 ± 1 | 1.4347 ± 0.0011 | 13.52 ± 0.63

CCCCO [butan-1-ol] + O=C1CCCC1
x2 = 0
Details | mass density [kg/m3] | refractive index | relative permittivity
[4] | – | – | 17.49 ± 0.71
[5] | 805.92 ± 1 | – | –
[6] | – | 1.3971 ± 0.001 | –

CCCCCCO [hexan-1-ol] + O=C1CCCC1
x2 = 0
Details | mass density [kg/m3] | refractive index | relative permittivity
[4] | – | – | 13.09 ± 0.62
[5] | 815.99 ± 1.2 | – | –
[6] | – | 1.4161 ± 0.0011 | –

CCCCCCCCCCO [decan-1-ol] + O=C1CCCC1
x2 = 0
Details | mass density [kg/m3] | refractive index | relative permittivity
[4] | – | – | 7.74 ± 0.49
[5] | 826.71 ± 1 | – | –
[6] | – | 1.4352 ± 0.0011 | –

O=C1CCCC1 [cyclopentanone] + CCCCCCCCO
Details | mass density, [5] [kg/m3] | refractive index, [6] | relative permittivity, [4]
x1 = 0.1 | 827.28 ± 1 | 1.4276 ± 0.0011 | 9.63 ± 0.54
x1 = 0.2 | 833.41 ± 1 | 1.4278 ± 0.0011 | 9.51 ± 0.54
x1 = 0.3 | 841.25 ± 1 | 1.4282 ± 0.0011 | 9.5 ± 0.54
x1 = 0.4 | 850.89 ± 1 | 1.4287 ± 0.0011 | 9.65 ± 0.54
x1 = 0.5 | 862.2 ± 1.1 | 1.4294 ± 0.0011 | 9.94 ± 0.55
x1 = 0.6 | 874.88 ± 1.1 | 1.4302 ± 0.0011 | 10.37 ± 0.56
x1 = 0.7 | 889.18 ± 1.1 | 1.4311 ± 0.0011 | 10.97 ± 0.57
x1 = 0.8 | 905.27 ± 1.1 | 1.4321 ± 0.0011 | 11.69 ± 0.59
x1 = 0.9 | 923.62 ± 1.1 | 1.4333 ± 0.0011 | 12.55 ± 0.61
x1 = 1 | 944.31 ± 1 | 1.4347 ± 0.0011 | 13.52 ± 0.63

O=C1CCCC1 [cyclopentanone] + C1CCCCC1
Details | refractive index, [6] | relative permittivity, [4]
x1 = 0.03 | 1.4235 ± 0.001 | 2.25 ± 0.3
x1 = 0.05 | 1.4235 ± 0.001 | 2.39 ± 0.31
x1 = 0.1 | 1.4236 ± 0.001 | 2.78 ± 0.32
x1 = 0.15 | 1.4237 ± 0.001 | 3.19 ± 0.34
x1 = 0.2 | 1.4239 ± 0.001 | 3.61 ± 0.36
x1 = 0.3 | 1.4244 ± 0.001 | 4.51 ± 0.39
x1 = 0.4 | 1.4252 ± 0.001 | 5.51 ± 0.42
x1 = 0.5 | 1.4262 ± 0.001 | 6.6 ± 0.46
x1 = 0.6 | 1.4274 ± 0.001 | 7.78 ± 0.49
x1 = 0.7 | 1.4289 ± 0.0011 | 9.06 ± 0.53
x1 = 0.8 | 1.4306 ± 0.0011 | 10.45 ± 0.56
x1 = 0.9 | 1.4325 ± 0.0011 | 11.94 ± 0.6
x1 = 1 | 1.4347 ± 0.0011 | 13.52 ± 0.63

CCCCCCO [hexan-1-ol]
Details | mass density [kg/m3] | refractive index | relative permittivity
[1] | 815.99 ± 1.2 | – | –
[2] | – | – | 13.09 ± 0.62
[3] | – | 1.4161 ± 0.0011 | –

CCCCCCCCO [octan-1-ol] + O=C1CCCC1
x2 = 0
Details | mass density [kg/m3] | refractive index | relative permittivity
[4] | – | – | 9.85 ± 0.55
[5] | 821.98 ± 1 | – | –
[6] | – | 1.4276 ± 0.0011 | –

CCCCCCCCO [octan-1-ol]
Details | mass density [kg/m3] | refractive index | relative permittivity
[1] | 821.98 ± 1 | – | –
[2] | – | – | 9.85 ± 0.55
[3] | – | 1.4276 ± 0.0011 | –

CCCCO [butan-1-ol]
Details | mass density [kg/m3] | refractive index | relative permittivity
[1] | 805.92 ± 1 | – | –
[2] | – | – | 17.49 ± 0.71
[3] | – | 1.3971 ± 0.001 | –

CCO [ethanol]
Details | mass density [kg/m3] | refractive index | relative permittivity
[1] | 785.26 ± 1 | – | –
[2] | – | – | 24.37 ± 0.84
[3] | – | 1.3594 ± 0.001 | –

C1CCCCC1 [cyclohexane] + O=C1CCCC1
x2 = 0
Details | refractive index | relative permittivity
[4] | – | 2.02 ± 0.29
[6] | 1.4235 ± 0.001 | –

O=C1CCCC1 [cyclopentanone] + CCCCCCO
Details | mass density, [5] [kg/m3] | refractive index, [6] | relative permittivity, [4]
x1 = 0.1 | 823.87 ± 1.1 | 1.4175 ± 0.0011 | 12.44 ± 0.61
x1 = 0.2 | 832.61 ± 1.1 | 1.4189 ± 0.0011 | 12 ± 0.6
x1 = 0.3 | 842.44 ± 1.1 | 1.4204 ± 0.0011 | 11.68 ± 0.59
x1 = 0.4 | 853.65 ± 1.1 | 1.4221 ± 0.0011 | 11.51 ± 0.59
x1 = 0.5 | 866.02 ± 1.1 | 1.4239 ± 0.0011 | 11.48 ± 0.59
x1 = 0.6 | 879.48 ± 1.1 | 1.4258 ± 0.0011 | 11.59 ± 0.59
x1 = 0.7 | 894.17 ± 1.1 | 1.4279 ± 0.0011 | 11.87 ± 0.59
x1 = 0.8 | 909.92 ± 1.1 | 1.4301 ± 0.0011 | 12.27 ± 0.6
x1 = 0.9 | 926.64 ± 1.1 | 1.4324 ± 0.0011 | 12.83 ± 0.62
x1 = 1 | 944.31 ± 1 | 1.4347 ± 0.0011 | 13.52 ± 0.63

CCCCCCCCCCO [decan-1-ol]
Details | mass density [kg/m3] | refractive index | relative permittivity
[1] | 826.71 ± 1 | – | –
[2] | – | – | 7.74 ± 0.49
[3] | – | 1.4352 ± 0.0011 | –

CCO [ethanol] + O=C1CCCC1
x2 = 0
Details | mass density [kg/m3] | refractive index | relative permittivity
[4] | – | – | 24.37 ± 0.84
[5] | 785.26 ± 1 | – | –
[6] | – | 1.3594 ± 0.001 | –

O=C1CCCC1 [cyclopentanone]
Details | mass density [kg/m3] | refractive index | relative permittivity
[1] | 944.31 ± 1 | – | –
[2] | – | – | 13.52 ± 0.63
[3] | – | 1.4347 ± 0.0011 | –

O=C1CCCC1 [cyclopentanone] + CCCCCCCCCCO
Details | mass density, [5] [kg/m3] | refractive index, [6] | relative permittivity, [4]
x1 = 0.1 | 829.38 ± 1 | 1.4345 ± 0.0011 | 7.75 ± 0.49
x1 = 0.2 | 833.22 ± 1 | 1.4339 ± 0.0011 | 7.84 ± 0.49
x1 = 0.3 | 839.24 ± 1 | 1.4335 ± 0.0011 | 8.07 ± 0.5
x1 = 0.4 | 847.47 ± 1 | 1.4333 ± 0.0011 | 8.43 ± 0.51
x1 = 0.5 | 857.91 ± 1.1 | 1.4332 ± 0.0011 | 8.93 ± 0.52
x1 = 0.6 | 870.34 ± 1.1 | 1.4332 ± 0.0011 | 9.56 ± 0.54
x1 = 0.7 | 884.81 ± 1.1 | 1.4333 ± 0.0011 | 10.34 ± 0.56
x1 = 0.8 | 901.52 ± 1.1 | 1.4336 ± 0.0011 | 11.27 ± 0.58
x1 = 0.9 | 921.01 ± 1.1 | 1.4341 ± 0.0011 | 12.31 ± 0.61
x1 = 1 | 944.31 ± 1 | 1.4347 ± 0.0011 | 13.52 ± 0.63
